Reference: patent US20230096663A1, “FARNESOID X RECEPTOR MODULATING COMPOUNDS AND METHODS OF USING THE SAME” (Inorbit Therapeutics AB, priority 2020, published 2023)
Read-outs that look alike come from different tables or passages of the source.

Assays:
[1] = molecular target: T1, Human FXR receptor (NR1H4) (Homo sapiens, UniProt Q96RI1); assay: Human Farnesoid X Receptor (NR1H4, FXR) reporter assay; format: cell-based
T1 sequence (Q96RI1 1-486): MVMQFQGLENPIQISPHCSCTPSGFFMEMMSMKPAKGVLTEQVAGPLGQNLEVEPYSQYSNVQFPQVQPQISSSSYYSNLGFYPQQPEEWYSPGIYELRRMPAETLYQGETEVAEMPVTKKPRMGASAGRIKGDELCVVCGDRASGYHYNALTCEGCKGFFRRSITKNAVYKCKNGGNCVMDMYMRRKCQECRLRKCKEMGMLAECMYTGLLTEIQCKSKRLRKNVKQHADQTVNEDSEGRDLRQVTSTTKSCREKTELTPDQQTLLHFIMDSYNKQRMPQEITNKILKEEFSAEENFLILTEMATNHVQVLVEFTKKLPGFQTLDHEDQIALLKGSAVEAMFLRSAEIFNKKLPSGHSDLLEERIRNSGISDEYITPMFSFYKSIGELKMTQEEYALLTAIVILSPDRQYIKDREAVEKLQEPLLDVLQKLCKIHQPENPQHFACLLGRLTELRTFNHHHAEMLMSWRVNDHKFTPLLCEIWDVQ
Source text: Determination of a ligand mediated Gal4 promoter driven transactivation to quantify ligand binding mediated activation of FXR. A FXR Reporter Assay kit was purchased from Indigo Bioscience (#IB00601-32) to determine the potency and efficacy of compounds that can induce FXR activation. The nuclear receptor assay system utilizes non-human mammalian cells engineered to provide constitutive high level expression of Human FXR receptor (NR1H4), a ligand-dependent transcription factor. The reporter cells include luciferase reporter gene functionality linked to an FXR-response promoter. Quantifying changes in luciferase expression in the treated reporter cells provides a sensitive surrogate measure of the changes in FXR activity. […] Luminescence intensity of the reaction is quantified using a luminometer, and is reported in terms of Relative Light Units (RLU's). […] After incubation, the media was carefully removed, Luciferase detection solution was added and the plate read in a Luminometer. The data was calculated as per kit instructions, with increases in luminescence being directly proportional to increases in compound agonist activity.

[2] = Metabolic identification in mouse hepatocytes; format: in vitro ADME; conditions: up to 120 min
Protocol: (§1) A 10 mM stock of test compound from Example 2 (sodium 2-(3-((5-cyclopropyl-3-(2-(trifluoromethoxy)phenyl)isoxazol-4-yl)methoxy)-8-azabicyclo[3.2.1]octan-8-yl)-4-fluorobenzo[d]thiazole-6-sulfinate) was prepared in DMSO. 20 μM of final working stock was then prepared by diluting 4 μL of 10 mM stock in 1996 μL of Krebs-Hensleit buffer. 200 μL of hepatocyte cell suspension (2×10^6 cells/mL) was added to TPP 48 well plate and preincubated for 30 min @ 37° C. in incubator. 200 μL of 20 μM working stock of test compound was added to the cell suspension and incubated in an incubator on vibramax at a shaking speed of 500 rpm. For the 0 min sample, 25 μL of hepatocyte suspension was precipitated with 200 μL of acetonitrile and 25 μL of 20 μM test compound was added. The reaction was stopped at 15, 30, 60, 90, 120 min by precipitating 50 μL of incubation mixture with 200 μL of acetonitrile. The samples were vortexed for 5 min at 1200 rpm and centrifuged at 4000 rpm for 10 min. The supernatant was separated, diluted 2 fold with water and analysed using a HPLC (Shimadzu SIL HTS) and mass spectrometer (5500 Qtrap). Acetonitrile and 0.1% formic acid in Milli-q-water were used as the mobile phase, using a column of either Waters Xbridge C18, 250×3.0 mm, 5.0μ particle size or Phenomnex kinetex 5μ EVO C18 100 A, 50×4.6 mm 5.0μ particle size. […]

[3] = Compound exposure in plasma and liver of HFHC fed male mice; format: in vivo; conditions: C57BL/6J, mouse, oral; for Kp at 4 h: liver/plasma, 4 hours after last dose on day 28, read-out: Ratio (liver to plasma exposure)
[4] = Metabolic identification in human hepatocytes; format: in vitro ADME
Protocol: A 10 mM stock of test compound from Example 2 (sodium 2-(3-((5-cyclopropyl-3-(2-(trifluoromethoxy)phenyl)isoxazol-4-yl)methoxy)-8-azabicyclo[3.2.1]octan-8-yl)-4-fluorobenzo[d]thiazole-6-sulfinate) was prepared in DMSO. 20 μM of final working stock was then prepared by diluting 4 μL of 10 mM stock in 1996 μL of Krebs-Hensleit buffer. 200 μL of hepatocyte cell suspension (2×10^6 cells/mL) was added to TPP 48 well plate and preincubated for 30 min @ 37° C. in incubator. 200 μL of 20 μM working stock of test compound was added to the cell suspension and incubated in an incubator on vibramax at a shaking speed of 500 rpm. For the 0 min sample, 25 μL of hepatocyte suspension was precipitated with 200 μL of acetonitrile and 25 μL of 20 μM test compound was added. The reaction was stopped at 15, 30, 60, 90, 120 min by precipitating 50 μL of incubation mixture with 200 μL of acetonitrile. The samples were vortexed for 5 min at 1200 rpm and centrifuged at 4000 rpm for 10 min. The supernatant was separated, diluted 2 fold with water and analysed using a HPLC (Shimadzu SIL HTS) and mass spectrometer (5500 Qtrap). Acetonitrile and 0.1% formic acid in Milli-q-water were used as the mobile phase, using a column of either Waters Xbridge C18, 250×3.0 mm, 5.0μ particle size or Phenomnex kinetex 5μ EVO C18 100 A, 50×4.6 mm 5.0μ particle size.
Table 4 summarizes the major metabolites observed when the compound of Example 2 of the invention was incubated in human, dog or mouse hepatocytes.

[5] = Metabolic identification in dog hepatocytes; format: in vitro ADME; conditions: up to 120 min
Protocol: as §1

For `O=S([O-])c1cc(F)c2nc(N3[C@@H]4CC[C@H]3C[C@@H](OCc3c(-c5ccccc5OC(F)(F)F)noc3C3CC3)C4)sc2c1.[Na+]` [Example 2, Sodium 2-(3-((5-cyclopropyl-3-(2-(trifluoromethoxy)phenyl)isoxazol-4-yl)methoxy)-8-azabicyclo[3.2.1]octan-8-yl)-4-fluorobenzo[d]thiazole-6-sulfinate], the EC50 ([1]; Human FXR (NR1H4) luciferase reporter assay, 22-24 h) was 460 nM, the Efficacy ([1]; normalized to GW4064 set as 100%) was 119% and the Acyl-Glucuronide [2] was “No”. The “Observed Major Metabolites” value [2] was “Hydroxy, Di-hydroxy and Alkenyl-hydroxy”, the concentration at 4 h ([3]; liver, 3 mg/kg, 3 mg/kg BID oral, 4 hours after last dose on day 28, read-out: Mean compound exposure, Liver) was 54.8 ng/g and the concentration at 4 h ([3]; liver, 10 mg/kg, 10 mg/kg BID oral, 4 hours after last dose on day 28, read-out: Mean compound exposure, Liver) was 138 ng/g. The concentration at 4 h ([3]; liver, 10 mg/kg, 10 mg/kg QD oral, 4 hours after last dose on day 28, read-out: Mean compound exposure, Liver) was 80.1 ng/g, the Kp at 4 h ([3]; 3 mg/kg, 3 mg/kg BID oral) was 54.8 and the Kp at 4 h ([3]; 10 mg/kg, 10 mg/kg BID oral) was 65.9. It also gave a Kp at 4 h ([3]; 10 mg/kg, 10 mg/kg QD oral) of 66.8, a concentration at 4 h ([3]; plasma, 3 mg/kg, 3 mg/kg BID oral, 4 hours after last dose on day 28, read-out: Mean compound exposure, Plasma) of 1 ng/mL and a concentration at 4 h ([3]; plasma, 10 mg/kg, 10 mg/kg BID oral, 4 hours after last dose on day 28, read-out: Mean compound exposure, Plasma) of 2.1 ng/mL. The concentration at 4 h ([3]; plasma, 10 mg/kg, 10 mg/kg QD oral, 4 hours after last dose on day 28, read-out: Mean compound exposure, Plasma) was 1.2 ng/mL, the “Major metabolite by MS/MS (FIG. 14)” value ([4]; 120 mins) was “hydroxy compound” and the Acyl-Glucuronide ([4]; up to 120 min) was “No”. For the same molecule, the “Observed Major Metabolites” value ([4]; up to 120 min) was “Hydroxy, Alkenyl and Alkenyl-hydroxy” and the Acyl-Glucuronide [5] was “No”.
